Experiment: Dissolution in Dowanol DPM under high shear
Assay type: physicochemical
Details: Dowanol DPM (dipropylene glycol methyl ether)

## COC(=O)c1ccccc1S(=O)(=O)NC(=O)Nc1nc(C)nc(OC)n1 [MSM, methsulfuron methyl]
  Dissolution in Dowanol DPM: did not dissolve
